pIC50: −log10 of the molar value.
What was measured:
[1] = mouse, in vivo, po, 30 mg/kg; cited from earlier work
BRL = assay: Cell proliferation assay; type: cell-based, Rattus norvegicus; conditions: liver, normal, 72 hours
Description: To quantify cell proliferation, either the nuclei of live cells were counted following staining with 4’,6-diamidino-2-phenylindole (DAPI; Sigma-Aldrich, Burlington, MA, USA), or metabolically active cells were detected using a CellTiter-Glo assay (Promega Corporation, Madison, WI, USA). Cells from a range of human and mammalian tumor cell lines (American Type Culture Collection, Manassas, VA, USA) were seeded at 4000 cells per well in 100 μL of culture medium in a 96-well plate and incubated overnight at 37°C with 5% CO2. […] In the DAPI staining method, cells were washed using 1× phosphate-buffered saline (PBS; Gibco Thermo Fisher Scientific, Waltham, MA, USA), fixed with 4% formaldehyde, permeabilized with 0.2% Triton X-100 (Sigma-Aldrich), washed again, and stained with 1 μg/mL DAPI to visualize cell nuclei. Cells were washed with 1× PBS three times, and 100 μL 1× PBS was added to each well. Plates were scanned using an IN Cell Analyzer 2200 (GE Healthcare Life Sciences, Chicago, IL, USA) and the number of cells per well was recorded. In the CellTiter-Glo assay, 60 μL of CellTiter-Glo luminescent solution was added to each well after incubation with the test compounds, and the assay plate was scanned using a Tecan Infinite M1000 PRO microplate reader (Tecan Group AG, Männedorf, Switzerland) to record luminescent signals.

NCI-H2228 = assay: Subcutaneous NCI-H2228 non-small cell lung cancer xenograft; type: in vivo, BALB/c nude mice; conditions: 50 mg/kg daily oral, 28 days, measured day 34
Description: The efficacy of GLR2007 was evaluated in human GBM and breast cancer orthotopic cell-line-derived xenografts in NOD/SCID mice (Shanghai Lingchang Biotechnology Co. Ltd, Shanghai, China) and BALB/c nude mice (Shanghai Sino-British SIPPR/BK Laboratory Animal Co. Ltd, Shanghai, China), and human lung, colorectal, and liver cancer subcutaneous cell-line-derived xenografts in BALB/c nude mice (Nanjing University National Resource Center, Nanjing, China, or Beijing Anikeeper Biotech Co., Beijing, China). Mice were maintained in humidity- and temperature-controlled conditions with food and water available ad libitum. For subcutaneous models, female BALB/c nude mice were inoculated at 4–8 weeks old with 3×10^6–1×10^7 tumor cells (see Table 1 for xenograft model cell types) in the right flank for tumor development. Randomization was performed when the mean tumor volume reached 118–171 mm^3.

[2] = tested on: breast cancer resistance protein (BCRP); conditions: cited from earlier work
[3] = Excretion of radioactivity in bile duct cannulated (BDC) rats; type: in vivo, Sprague Dawley rats
Description: To investigate the degree to which GLR2007 penetrated organs and tissues, and the levels of excretion of the compound, rats were dosed with radiolabeled GLR2007 and whole-body autoradiography was performed. Sprague Dawley rats (Vital River Laboratory Animal Technology Co., Beijing, China; N=38, female n=19; 8–11 weeks old) were maintained in humidity- and temperature-controlled conditions on a 12-hour light/dark cycle, with food (certified rat diet; Jiangsu Xietong Pharmaceutical Biological Engineering Co., Ltd, Jiangsu, China) and water available ad libitum. […] Urine, feces, and cage rinse/wash up to 168 hours after treatment were collected from six intact rats (three male, three female); bile, urine, feces, and cage rinse/wash up to 72 hours after treatment were collected from eight bile duct cannulated (BDC) rats (four male, four female). Heart, lung, liver, spleen, kidneys, whole brain, stomach tract wall, intestinal tract wall, skeletal muscle, body fat, reproductive organs (uterus and ovary for female rats, testis and epididymis for male rats) were collected at 2, 6, 24, and 72 hours after treatment (three male, three female per time point). The total radioactivity (TRA) of plasma, bile, urine, and cage rinse/wash samples was directly analyzed by liquid scintillation counting. Fecal and tissue homogenates and blood were combusted using a PerkinElmer Oxidizer (PerkinElmer Inc.), and the generated [^14C]CO2 was captured in ^14C scintillation cocktail (Shimadzu Corporation, Kyoto, Japan), followed by analysis using a PerkinElmer Liquid Scintillation Counter (PerkinElmer Inc.). The TRA levels determined in bile, urine, feces, and cage rinse/wash were used to calculate the percentage of the administered dose excreted. Mean TRA values of whole brain and plasma at 2, 6, 24, and 72 hours were used to calculate the area under concentration–time curve from time zero to 72 hours (AUC0–72), using a noncompartmental model in Phoenix WinNonlin v6.3 software (Certara, Princeton, NJ, USA).

Colo320DM = assay: Cell proliferation assay; type: cell-based, Homo sapiens; conditions: colon carcinoma, 72 hours
In short: (§1)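 Read-out is either the number of live-cell nuclei per well, counted by imaging after DAPI staining, or CellTiter-Glo luminescence reflecting metabolically active cells. Cells are seeded at 4000 per well and allowed to settle overnight at 37°C in 5% CO2 before compound treatment.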

PLC/PRF/5 = assay: Cell proliferation assay; type: cell-based, Homo sapiens; conditions: PLC/PRF/5, liver, hepatocellular carcinoma, 72 hours
In short: as §1

Compound	Kp,uu [1]	pIC50 (BRL)	TGI (%) (NCI-H2228)	Substrate of efflux transporter BCRP [2]	Dose recovered in bile ([3]; BDC rats, within 72 hours) [%]	Dose recovered ([3]; BDC rats, within 72 hours, single oral 6 mg/100 μCi/kg) [%]	Dose predicted to be absorbed ([3]; based on excretion in bile and urine from BDC rats)	pIC50 (Colo320DM)	pIC50 (PLC/PRF/5)
CCN1CCN(Cc2ccc(Nc3ncc(F)c(-c4cc(F)c5nc(C)n(C(C)C)c5c4)n3)nc2)CC1 [Abemaciclib, abemaciclib, reference compound]	0.03								
CC1=Nc2c(F)cc(-c3nc(Nc4ccc(C5CCN(C)CC5)cn4)ncc3F)cc2C12CCCC2 [GLR2007]		5.67	33.9	not a substrate	33.3	84.2	at least 42.4%	5.94	6.52

Reference: publication PMC9403987 (Frontiers in Oncology, 2022)
